Experimental findings from patent publication US20050191668A1, “Methods of using peroxisome proliferator-activated receptor alpha target genes” (priority 2004, published 2005) are described below.

Type in all cases: cell-based, human
Experiment [1] relates to Pa9 gene. Put plainly: Pa9 gene expression by real-time RT-PCR in HuH7 hepatocytes. The following applies: HuH7 hepatocytes. The source says: (§1) Human hepatocyte HuH7 cells, which are epithelial cells of liver, were obtained from Japan Health Science Research Resources Bank (Osaka, Japan). Human primary adipocytes, which are connective tissue cells specialized for the synthesis and storage of fat, were obtained from Zen-Bio, Inc (Research Triangle Park, NC). Human primary skeletal muscle cells (SKMC) were obtained from Cambrex Bio Science (Walkersville, Md.). PPARα agonists, Wy14643 (Agatha, et al, 2000, Archives of Biochemistry and Biophysics 380:353-359) and fenofibrates were obtained from Cayman Chemical (Ann Arbor, Mich.) and Sigma (St Louis, Mo.), respectively.
(§2) Human HuH7 cells were cultured in Dulbecco's Modified Eagle Medium with 10% Fetal Bovine Serum (Gibco, N.Y.). Cells were treated with charcoal-stripped, delipidated calf serum (5%) (Sigma, St Louis, Mo.) for about 4-18 hours. Then, cells were treated with different concentrations of PPARα agonist (Wy14643 or fenofibrates) for about 20-24 h. Human SKM cells were cultured in Skeletal Muscle Growth Medium (Cambrex Bio Science, Walkersville, Md.), and were treated with different concentrations of PPARα agonist (Wy14643 or fenofibrates) for about 18-20 hours. Human primary adipocytes were cultured in Preadipocyte Medium, (Cat #PM—1, Zen-Bio, Inc., Research Triangle Park, NC), and were treated with different concentrations of PPARα agonist (Wy14643 or fenofibrates) for about 18-20 hours.
(§3) Total RNA was purified from cultured cells following the protocol provided by the manufacturer (Trizon method, Invitrogen Inc. Ca). The polymerase chain reaction (PCR) primers and fluorescent probes (TagMan probes) for Pa9, Pa13, and Pa21 were designed from GenBank sequences of accession numbers W30988, AB000584, and NM_080725, respectively. The primers and probes were designed using the software PrimerDesign (Applied Biosystems, Foster City, Calif.). The PCR primers for Pa9 were SEQ ID NO: 7, (5-[…]) and SEQ ID NO: 8 (5-[…]). […] The PCR primers for Pa13 were SEQ ID NO: 10 (5-[…], T) and SEQ ID NO: 11 (5-[…] T). […] The PCR primers for Pa21 were SEQ ID NO: 13 (5-[…] C) and SEQ ID NO: 14 (5-[…]). […] All primers and probes were synthesized by Keystone Labs (Camarillo, Calif.).
(§4) Reverse transcription (RT) and PCR were conducted in one step using “One-Step RT-PCR Master Mix Reagent” kit (Applied Biosystems, Foster City, Calif.) in ABI PRISM 7700 Sequence Detection System (Applied Biosystems). Each reaction was performed in a total volume of 25 μl containing 40 ng of total RNA. The reaction condition was: 48° C. for 30 minutes, 60° C. for 30 minutes, 94° C. for 5 minutes, followed by 40 cycles of 94° C. for 20 seconds and 60° C. for 1 minute. The primers for 18S ribosomal RNA were developed and provided by Applied Biosystems. The measurement of human 18S ribosomal RNA was used as an internal control for normalization of measuring and loading errors. PCR data were collected by Ct value (the cycle number at which logarithmic PCR plots cross a calculated threshold line) according to the manufacturer's guidelines and the value was used to determine the Δ^Ct (Ct of the target gene minus the Ct of 18S ribosomal RNA controls). Relative mRNA level was calculated using the equation 2^−ΔΔCt as described previously (Heid et al., 1996, Genome Res. 6:986-994).
(Quantitative PCR measures a nucleic acid by following its amplification.)

Experiment [2] has as its system Pa21 gene. In words: Pa21 gene expression by real-time RT-PCR in primary skeletal muscle cells. To be noted: about 18-20 hours, vehicle control = 100.
Description: as §1, §2, §3, §4

Experiment [3] deals with Pa13 gene. Put plainly: Pa13 gene expression by real-time RT-PCR in primary skeletal muscle cells. To be noted: about 18-20 hours, vehicle control = 100.
Description: as §1, §2, §3, §4

For experiment [4], the system named is Pa9 gene. In words: Pa9 gene expression by real-time RT-PCR in primary skeletal muscle cells. The following applies: about 18-20 hours, vehicle control = 100.
Description: as §1, §2, §3, §4
The nucleotide sequence of the human FDRG gene (AX278133) is provided in SEQ ID NO: 1 and the sequence alignment between W30988 and FDRG gene is shown in FIG. 1. […] Quantitative real-time RT-PCR was performed to test whether gene expression of the human FDRG gene is regulated by PPARα.

The subject of experiment [5] is Pa9 gene. Put plainly: Pa9 gene expression by real-time RT-PCR in primary adipocytes. To be noted: 50 uM, about 18-20 hours, vehicle control = 100.
Description: as §1, §2
Total RNA was purified from cultured cells following the protocol provided by the manufacturer (Trizon method, Invitrogen Inc. Ca). The polymerase chain reaction (PCR) primers and fluorescent probes (TagMan probes) for Pa9, Pa13, and Pa21 were designed from GenBank sequences of accession numbers W30988, AB000584, and NM_080725, respectively. The primers and probes were designed using the software PrimerDesign (Applied Biosystems, Foster City, Calif.). The PCR primers for Pa9 were SEQ ID NO: 7, (5-[…]) and SEQ ID NO: 8 (5-[…]). […] The PCR primers for Pa13 were SEQ ID NO: 10 (5-[…], T) and SEQ ID NO: 11 (5-[…] T). […] The PCR primers for Pa21 were SEQ ID NO: 13 (5-[…] C) and SEQ ID NO: 14 (5-[…]). […]
Reverse transcription (RT) and PCR were conducted in one step using “One-Step RT-PCR Master Mix Reagent” kit (Applied Biosystems, Foster City, Calif.) in ABI PRISM 7700 Sequence Detection System (Applied Biosystems). […] PCR data were collected by Ct value (the cycle number at which logarithmic PCR plots cross a calculated threshold line) according to the manufacturer's guidelines and the value was used to determine the Δ^Ct (Ct of the target gene minus the Ct of 18S ribosomal RNA controls). Relative mRNA level was calculated using the equation 2^−ΔΔCt as described previously (Heid et al., 1996, Genome Res. 6:986-994).

For experiment [6], the system named is Pa13 gene. In words: Pa13 gene expression by real-time RT-PCR in HuH7 hepatocytes.
Description: as §1, §2, §3, §4

The test system of experiment [7] is Pa21 gene. In words: Pa21 gene expression by real-time RT-PCR in primary adipocytes. To be noted: about 18-20 hours, vehicle control = 100.
Description: as §1, §2, §3, §4

Experiment [8] relates to Pa21 gene. Put plainly: Pa21 gene expression by real-time RT-PCR in HuH7 hepatocytes.
Description: as §1, §2, §3, §4

The subject of experiment [9] is Pa13 gene. Put plainly: Pa13 gene expression by real-time RT-PCR in primary adipocytes. To be noted: about 18-20 hours, vehicle control = 100.
Description: as §1, §2, §3, §4

Setting [10] is: 3 uM, about 20-24 h, vehicle control = 100.
Where [11] appears, read: 10 uM, about 20-24 h, vehicle control = 100.
[12] abbreviates: 30 uM, about 20-24 h, vehicle control = 100.
[13] abbreviates: 100 uM, about 20-24 h, vehicle control = 100.
The mark [14] stands for this setting: 300 uM, about 20-24 h, vehicle control = 100.
The mark [15] stands for this setting: 1 μM, vehicle control = 100 (Table 4).

On to `CC(C)OC(=O)C(C)(C)Oc1ccc(C(=O)c2ccc(Cl)cc2)cc1` [Fenofibrate], for which the “Pa9 (W38098) gene expression, Percentage ± SE (%)” value (“Pa9 … Percentage ± SE (%)” for short) with Pa9 gene [1] (setting [10]) worked out at 110 ± 12.7%; in the experiment on Pa9 gene [1] (setting [11]), 90 ± 23%; in the experiment with Pa9 gene [1] (setting [12]), 80 ± 2%; with Pa9 gene [1] (setting [13]), 140 ± 37.1%; in the experiment on Pa9 gene [1] (setting [14]), 200 ± 11.5%; in the experiment with Pa9 gene [4] (3 uM), 120 ± 34.2%. The “Pa9 … Percentage ± SE (%)” value with Pa9 gene [4] (10 uM) worked out at 230 ± 15.7%; in the experiment on Pa9 gene [4] (30 uM), 340 ± 7.4%; in the experiment with Pa9 gene [4] (100 uM), 350 ± 19.7%; with Pa9 gene [4] (300 uM), 550 ± 14%; in the experiment with Pa9 gene [5], 127 ± 1.5%. In addition, the “Pa21 (H4960) gene expression, Percentage ± SE (%)” value (from here on “Pa21 … Percentage ± SE (%)”) in the experiment with Pa21 gene [2] (3 uM) is reported as 110 ± 14.5%; in the experiment with Pa21 gene [2] (10 uM) it was 290 ± 1.4%; in the experiment with Pa21 gene [2] (30 uM), 280 ± 52.5%; with Pa21 gene [7] (10 uM), 63 ± 5.6%; in the experiment with Pa21 gene [7] (50 uM), 109 ± 4.5%; in the experiment on Pa21 gene [7] (250 uM), 121 ± 17.3%. The “Pa21 … Percentage ± SE (%)” value in the experiment with Pa21 gene [8] (setting [10]) is 63.6 ± 17.3%; with Pa21 gene [8] (setting [11]), 227.3 ± 54%; in the experiment on Pa21 gene [8] (setting [12]), 209.1 ± 20.4%; in the experiment with Pa21 gene [8] (setting [13]), 300 ± 20.6%; in the experiment on Pa21 gene [8] (setting [14]), 336.4 ± 24.3%. In addition, the “Pa13 (N26311) gene expression, Percentage ± SE (%)” value (“Pa13 … Percentage ± SE (%)” for short) in the experiment with Pa13 gene [3] (3 uM) was 72.7 ± 30.9%; in the experiment on Pa13 gene [3] (10 uM), 63.6 ± 11.8%; in the experiment on Pa13 gene [3] (30 uM) it was 181.8 ± 3%; in the experiment on Pa13 gene [3] (100 uM) it was 218.2 ± 2.9%; in the experiment with Pa13 gene [3] (300 uM), 309.1 ± 7.4%; in the experiment with Pa13 gene [6] (setting [10]), 180 ± 43.9%. Moreover, the “Pa13 … Percentage ± SE (%)” value in the experiment with Pa13 gene [6] (setting [11]) came to 160 ± 55%; with Pa13 gene [6] (setting [12]), 250 ± 4.8%; in the experiment on Pa13 gene [6] (setting [13]), 750 ± 10.8%; in the experiment on Pa13 gene [6] (setting [14]), 710 ± 7.3%; with Pa13 gene [9] (10 uM) it was 70 ± 27.1%; in the experiment on Pa13 gene [9] (50 uM), 45 ± 13.3%. Further, in the experiment with Pa13 gene [9] (250 uM), the “Pa13 … Percentage ± SE (%)” value turned out to be 206 ± 34.4%.
Consider `CN(CCOc1ccc(CC2SC(=O)NC2=O)cc1)c1ccccn1` (centres unmarked) [Rosiglitazone], for which, in the experiment with Pa9 gene [1] (setting [15]), the “Pa9 … Percentage ± SE (%)” value is 147 ± 31.2%. Besides, in the experiment with Pa13 gene [6] (setting [15]), the “Pa13 … Percentage ± SE (%)” value amounted to 217 ± 20.2%. Besides, in the experiment with Pa21 gene [8] (setting [15]), the “Pa21 … Percentage ± SE (%)” value is given as 97 ± 17.5%.
